{
  "source": "patent US6376426B1",
  "about": "“Herbicidal 3-(heterocycl-1-yl)-uracils” (BASF Aktiengesellschaft, priority 1999, dated 2002)",
  "type_in_all_cases": "in vivo",
  "key": {"Zea mays [1]": {"tested_on": "Zea mays", "assay": "Pre-emergence herbicidal test, ZEAMX", "details": "PRE, 21 days after spraying", "protocol": "(§1) To evaluate their herbicidal activity, compounds according to the invention are tested using a representative range of plants:\n(§2) The pre-emergence tests involve spraying a liquid formulation of the compound onto the soil in which the seeds of the plant species mentioned above has recently been sown.\n(§3) The soil used in the tests is a prepared horticultural loam. The formulations used in the tests are prepared from solutions of the test compounds in acetone containing 0.4% by weight of an alkylphenol/ethylene oxide condensate available under the trade mark TRITON X-155. […] In these tests untreated sown soil are used as controls.\n(§4) The herbicidal effects of the test compounds are assessed visually twenty-one days after spraying the foliage and the soil and are recorded on a 0-9 scale. A rating 0 indicates growth as untreated control, a rating 9 indicates death. An increase of 1 unit on the linear scale approximates to a 10% increase in the level of effect."}, "Triticum aestivum [2]": {"tested_on": "Triticum aestivum", "assay": "Post-emergence herbicidal test, TRZAW", "details": "POST, 21 days after spraying", "protocol": "as §1\n(§5) […] After spraying, the plants are placed on greenhouse benches and are cared for in the usual manner, commensurate with conventional greenhouse practices.\nas §4"}, "Galium aparine [3]": {"tested_on": "Galium aparine", "assay": "Pre-emergence herbicidal test, GALAP", "design": "key to herbicidal effect (0-9 scale) GALAP / herbicidal rating GALAP: A rating 0 indicates growth as untreated control; a rating 9 indicates death", "details": "PRE, 21 days after spraying", "protocol": "as §1, §2, §3, §4"}, "Zea mays [4]": {"tested_on": "Zea mays", "assay": "Post-emergence herbicidal test, ZEAMX", "details": "21 days after spraying", "protocol": "as §1, §5, §4"}, "Stellaria media [5]": {"tested_on": "Stellaria media", "assay": "Pre-emergence herbicidal test, STEME", "design": "key to herbicidal effect (0-9 scale) STEME / herbicidal rating STEME: A rating 0 indicates growth as untreated control; a rating 9 indicates death", "details": "PRE, 21 days after spraying", "protocol": "as §1, §2, §3, §4"}, "Abutilon theophrasti [6]": {"tested_on": "Abutilon theophrasti", "assay": "Pre-emergence herbicidal test, ABUTH", "design": "key to herbicidal effect (0-9 scale) ABUTH / herbicidal rating ABUTH: A rating 0 indicates growth as untreated control; a rating 9 indicates death", "details": "PRE, 21 days after spraying", "protocol": "as §1, §2, §3, §4"}, "Echinochloa crus-galli [7]": {"tested_on": "Echinochloa crus-galli", "assay": "Post-emergence herbicidal test, ECHCG", "design": "key: A rating 0 indicates growth as untreated control; a rating 9 indicates death", "details": "21 days after spraying", "protocol": "as §1, §5, §4"}, "Setaria viridis [8]": {"tested_on": "Setaria viridis", "assay": "Pre-emergence herbicidal test, SETVI", "design": "key to herbicidal effect (0-9 scale) SETVI / herbicidal rating SETVI: A rating 0 indicates growth as untreated control; a rating 9 indicates death", "details": "PRE, 21 days after spraying", "protocol": "as §1, §2, §3, §4"}, "Echinochloa crus-galli [9]": {"tested_on": "Echinochloa crus-galli", "assay": "Pre-emergence herbicidal test, ECHCG", "details": "21 days after spraying", "protocol": "as §1, §2, §3, §4"}, "Matricaria inodora [10]": {"tested_on": "Matricaria inodora", "assay": "Post-emergence herbicidal test, MATIN", "design": "key to herbicidal effect (0-9 scale) MATIN / herbicidal rating MATIN: A rating 0 indicates growth as untreated control; a rating 9 indicates death", "details": "POST, 21 days after spraying", "protocol": "as §1, §5, §4"}, "Galium aparine [11]": {"tested_on": "Galium aparine", "assay": "Post-emergence herbicidal test, GALAP", "design": "key to herbicidal effect (0-9 scale) GALAP / herbicidal rating GALAP: A rating 0 indicates growth as untreated control; a rating 9 indicates death", "details": "POST, 21 days after spraying", "protocol": "as §1, §5, §4"}, "Alopecurus myosuroides": {"tested_on": "Alopecurus myosuroides", "assay": "Post-emergence herbicidal test, ALOMY", "design": "key: A rating 0 indicates growth as untreated control; a rating 9 indicates death", "details": "21 days after spraying", "protocol": "as §1, §5, §4"}, "Hordeum vulgare [12]": {"tested_on": "Hordeum vulgare", "assay": "Post-emergence herbicidal test, HORVW", "details": "21 days after spraying", "protocol": "as §1\nThese acetone solutions are diluted with water and the resulting formulations applied at dosage levels equivalent to about 1000, 800, 400, 250 or 100 g/ha per hectare of test compound per pot. After spraying, the plants are placed on greenhouse benches and are cared for in the usual manner, commensurate with conventional greenhouse practices.\nas §4"}, "Glycine max [13]": {"tested_on": "Glycine max", "assay": "Pre-emergence herbicidal test, GLXMA", "details": "PRE, 21 days after spraying", "protocol": "as §1, §2, §3, §4"}, "Glycine max [14]": {"tested_on": "Glycine max", "assay": "Post-emergence herbicidal test, GLXMA", "details": "21 days after spraying", "protocol": "as §1, §5, §4"}, "Ipomoea hederacea [15]": {"tested_on": "Ipomoea hederacea", "assay": "Pre-emergence herbicidal test, IPOHE", "details": "21 days after spraying", "protocol": "as §1, §2, §3, §4"}, "Triticum aestivum [16]": {"tested_on": "Triticum aestivum", "assay": "Pre-emergence herbicidal test, TRZAW", "details": "21 days after spraying", "protocol": "as §1, §2, §3, §4"}, "Abutilon theophrasti [17]": {"tested_on": "Abutilon theophrasti", "assay": "Post-emergence herbicidal test, ABUTH", "design": "key to herbicidal effect (0-9 scale) ABUTH / herbicidal rating ABUTH: A rating 0 indicates growth as untreated control; a rating 9 indicates death", "details": "POST, 21 days after spraying", "protocol": "as §1, §5, §4"}, "Setaria viridis [18]": {"tested_on": "Setaria viridis", "assay": "Post-emergence herbicidal test, SETVI", "design": "key to herbicidal effect (0-9 scale) SETVI / herbicidal rating SETVI: A rating 0 indicates growth as untreated control; a rating 9 indicates death", "details": "POST, 21 days after spraying", "protocol": "as §1, §5, §4"}, "Ipomoea hederacea [19]": {"tested_on": "Ipomoea hederacea", "assay": "Post-emergence herbicidal test, IPOHE", "design": "key to herbicidal effect (0-9 scale) IPOHE / herbicidal rating IPOHE: A rating 0 indicates growth as untreated control; a rating 9 indicates death", "details": "POST, 21 days after spraying", "protocol": "as §1, §5, §4"}, "Hordeum vulgare [20]": {"tested_on": "Hordeum vulgare", "assay": "Pre-emergence herbicidal test, HORVW", "details": "21 days after spraying", "protocol": "as §1, §2, §3, §4"}, "Stellaria media [21]": {"tested_on": "Stellaria media", "assay": "Post-emergence herbicidal test, STEME", "design": "key to herbicidal effect (0-9 scale) STEME / herbicidal rating STEME: A rating 0 indicates growth as untreated control; a rating 9 indicates death", "details": "POST, 21 days after spraying", "protocol": "as §1, §5, §4"}, "Matricaria inodora [22]": {"tested_on": "Matricaria inodora", "assay": "Pre-emergence herbicidal test, MATIN", "design": "key to herbicidal effect (0-9 scale) MATIN / herbicidal rating MATIN: A rating 0 indicates growth as untreated control; a rating 9 indicates death", "details": "PRE, 21 days after spraying", "protocol": "as §1, §2, §3, §4"}},
  "data": [
    {"smiles": "Cn1c(C(F)(F)F)cc(=O)n(-n2ccc3cc([N+](=O)[O-])ccc32)c1=O", "note": "[Example 4]", "values": [
      {"measurement": "herbicidal effect (0-9 scale) ZEAMX", "setting": "Zea mays [1]; 400 g/ha", "result": 6},
      {"measurement": "herbicidal effect (0-9 scale) ZEAMX", "setting": "Zea mays [1]; 800 g/ha", "result": 8},
      {"measurement": "herbicidal effect (0-9 scale) TRZAW", "setting": "Triticum aestivum [2]; 400 g/ha", "result": 4},
      {"measurement": "herbicidal effect (0-9 scale) TRZAW", "setting": "Triticum aestivum [2]; 800 g/ha", "result": 4},
      {"measurement": "herbicidal effect (0-9 scale) GALAP", "setting": "Galium aparine [3]; 400 g/ha", "result": 9},
      {"measurement": "herbicidal effect (0-9 scale) GALAP", "setting": "Galium aparine [3]; 800 g/ha", "result": 9},
      {"measurement": "herbicidal effect (0-9 scale) ZEAMX", "setting": "Zea mays [4]; 400 g/ha", "result": 6},
      {"measurement": "herbicidal effect (0-9 scale) ZEAMX", "setting": "Zea mays [4]; 800 g/ha", "result": 8},
      {"measurement": "herbicidal effect (0-9 scale) STEME", "setting": "Stellaria media [5]; 400 g/ha", "result": 9},
      {"measurement": "herbicidal effect (0-9 scale) STEME", "setting": "Stellaria media [5]; 800 g/ha", "result": 9},
      {"measurement": "herbicidal effect (0-9 scale) ABUTH", "setting": "Abutilon theophrasti [6]; 400 g/ha", "result": 9},
      {"measurement": "herbicidal effect (0-9 scale) ABUTH", "setting": "Abutilon theophrasti [6]; 800 g/ha", "result": 9},
      {"measurement": "herbicidal effect (0-9 scale) ECHCG", "setting": "Echinochloa crus-galli [7]; 400 g/ha", "result": 8},
      {"measurement": "herbicidal effect (0-9 scale) ECHCG", "setting": "Echinochloa crus-galli [7]; 800 g/ha", "result": 9},
      {"measurement": "herbicidal effect (0-9 scale) SETVI", "setting": "Setaria viridis [8]; 400 g/ha", "result": 9},
      {"measurement": "herbicidal effect (0-9 scale) SETVI", "setting": "Setaria viridis [8]; 800 g/ha", "result": 9},
      {"measurement": "herbicidal effect (0-9 scale) ECHCG", "setting": "Echinochloa crus-galli [9]; 400 g/ha", "result": 8},
      {"measurement": "herbicidal effect (0-9 scale) ECHCG", "setting": "Echinochloa crus-galli [9]; 800 g/ha", "result": 8},
      {"measurement": "herbicidal effect (0-9 scale) MATIN", "setting": "Matricaria inodora [10]; 400 g/ha", "result": 9},
      {"measurement": "herbicidal effect (0-9 scale) MATIN", "setting": "Matricaria inodora [10]; 800 g/ha", "result": 9},
      {"measurement": "herbicidal effect (0-9 scale) GALAP", "setting": "Galium aparine [11]; 400 g/ha", "result": 8},
      {"measurement": "herbicidal effect (0-9 scale) GALAP", "setting": "Galium aparine [11]; 800 g/ha", "result": 9},
      {"measurement": "herbicidal effect (0-9 scale) ALOMY", "setting": "Alopecurus myosuroides; 400 g/ha", "result": 8},
      {"measurement": "herbicidal effect (0-9 scale) ALOMY", "setting": "Alopecurus myosuroides; 800 g/ha", "result": 9},
      {"measurement": "herbicidal effect (0-9 scale) HORVW", "setting": "Hordeum vulgare [12]; 400 g/ha", "result": 5},
      {"measurement": "herbicidal effect (0-9 scale) HORVW", "setting": "Hordeum vulgare [12]; 800 g/ha", "result": 6},
      {"measurement": "herbicidal effect (0-9 scale) GLXMA", "setting": "Glycine max [13]; 400 g/ha", "result": 3},
      {"measurement": "herbicidal effect (0-9 scale) GLXMA", "setting": "Glycine max [13]; 800 g/ha", "result": 3},
      {"measurement": "herbicidal effect (0-9 scale) GLXMA", "setting": "Glycine max [14]; 400 g/ha", "result": 8},
      {"measurement": "herbicidal effect (0-9 scale) GLXMA", "setting": "Glycine max [14]; 800 g/ha", "result": 8},
      {"measurement": "herbicidal effect (0-9 scale) IPOHE", "setting": "Ipomoea hederacea [15]; 400 g/ha", "result": 7},
      {"measurement": "herbicidal effect (0-9 scale) IPOHE", "setting": "Ipomoea hederacea [15]; 800 g/ha", "result": 8},
      {"measurement": "herbicidal effect (0-9 scale) TRZAW", "setting": "Triticum aestivum [16]; 400 g/ha", "result": 3},
      {"measurement": "herbicidal effect (0-9 scale) TRZAW", "setting": "Triticum aestivum [16]; 800 g/ha", "result": 6},
      {"measurement": "herbicidal effect (0-9 scale) ABUTH", "setting": "Abutilon theophrasti [17]; 400 g/ha", "result": 9},
      {"measurement": "herbicidal effect (0-9 scale) ABUTH", "setting": "Abutilon theophrasti [17]; 800 g/ha", "result": 9},
      {"measurement": "herbicidal effect (0-9 scale) SETVI", "setting": "Setaria viridis [18]; 400 g/ha", "result": 9},
      {"measurement": "herbicidal effect (0-9 scale) SETVI", "setting": "Setaria viridis [18]; 800 g/ha", "result": 9},
      {"measurement": "herbicidal effect (0-9 scale) IPOHE", "setting": "Ipomoea hederacea [19]; 400 g/ha", "result": 9},
      {"measurement": "herbicidal effect (0-9 scale) IPOHE", "setting": "Ipomoea hederacea [19]; 800 g/ha", "result": 9},
      {"measurement": "herbicidal effect (0-9 scale) HORVW", "setting": "Hordeum vulgare [20]; 400 g/ha", "result": 5},
      {"measurement": "herbicidal effect (0-9 scale) HORVW", "setting": "Hordeum vulgare [20]; 800 g/ha", "result": 7},
      {"measurement": "herbicidal effect (0-9 scale) STEME", "setting": "Stellaria media [21]; 400 g/ha", "result": 9},
      {"measurement": "herbicidal effect (0-9 scale) STEME", "setting": "Stellaria media [21]; 800 g/ha", "result": 9},
      {"measurement": "herbicidal effect (0-9 scale) MATIN", "setting": "Matricaria inodora [22]; 400 g/ha", "result": 9},
      {"measurement": "herbicidal effect (0-9 scale) MATIN", "setting": "Matricaria inodora [22]; 800 g/ha", "result": 9}
    ]}
  ]
}
